Measurements published in a melting point compilation (Tetko et al.; mined from patent text by program, amines drawn as free bases though some values may be those of a salt).

Row | melting point [°C] | SMILES
1 | 200 | O=c1[nH]c2ccc(Cl)cc2c(=O)o1
2 | 95 to 97 | Cc1oc2c(C)c(C)c(NCc3ccc(F)cc3)c(C)c2c1-c1ccc(C(C)C)cc1
3 | 197 to 199 | CN(Cc1ccccc1)Cc1c(-c2ccc([N+](=O)[O-])cc2)sc2c1c(=O)c(C(=O)c1ccccc1)cn2Cc1c(F)cccc1F
4 | 160 to 161 | O=C(NCC1(c2ccccc2)CCCC1)Nc1ccc(F)cc1F
5 | 158 | Cn1c2c(c3cc(F)ccc31)C(=O)CCC2
6 | 114 to 116 | Cc1c(CNCCc2cc3cccc(F)c3n2C)ncn1S(=O)(=O)N(C)C
7 | 232 to 233 | CCc1nc2c(N)nc3cccnc3c2n1CC1(O)CCNCC1
8 | 179 to 181 | CC(C)(C)c1ccc(C(=O)Nc2ccc(OCC(=O)O)cc2)cc1
9 | 98 to 99 | CCOC(=O)c1c(C(C)(C)O)nc(CO)n1Cc1ccc(-c2ccccc2-c2nnn[nH]2)cc1
10 | 167 to 168 | CCCC(=O)c1ccc(=O)[nH]c1C
11 | 100 to 113 | O=S(=O)(c1ccccc1)c1ccc2c(c1)NCC(C(F)F)(C(F)F)O2
12 | 142 to 144 | CCCCCCCCCCCCCCCCOc1cc(NS(=O)(=O)c2cc(N)ccc2OCCOC)c(O)cc1C
13 | 93 to 98 | COC(=O)CC(=O)c1ccc(C#N)cc1
14 | 182 to 184 | CCCCOC(=O)[C@H]1CN(c2ccc3c(c2)oc(=O)n3C)C(=O)O1
15 | 139 to 140 | CNC(=S)Nc1cc(Cl)ccc1C
16 | 225 | C1CCC(Nc2nc(NC3CCCCC3)nc(NC3CCCCC3)n2)CC1
17 | 244 to 247 | CCc1c2nc(-c3cc(S(C)(=O)=O)ccc3OCC(C)C)[nH]c(=O)c2nn1Cc1cccnn1
18 | 140 | NC(=O)c1nccn1C1Cc2cc(-n3ccnc3)ccc2C1=O (configuration not stated)
19 | 144 | CCCCN1C(=O)NC(Cc2ccc(C(=O)OC)cc2)C1=O (configuration not stated)
20 | 39 | O=C(O)CCCCCCc1cc(-c2ccccc2)c2ccccc2n1
21 | 215 | CC(C)(O)c1cnn2c(-c3ccc(F)c(-c4ccc(F)cc4C#N)c3)cnc2n1
22 | 100 to 102 | CC(C)N(CCN1C(=O)C(=O)c2cc(F)ccc21)C(C)C
23 | > 265 | CCCc1nc2c(N)nc3cc(O)ccc3c2n1CC(C)C
24 | 137 to 139 | C=Cc1cccc(-c2nc(CCOc3ccc(OC(C)(C)C(=O)O)cc3)c(C)o2)c1
25 | 103 to 105 | CC(C)Cc1c[nH]c(-c2ccnc(NC(=O)c3ccccc3)c2)n1

Row | melting point [°C] | SMILES
26 | 116 to 117 | COCCN(CC1=CCC(Oc2ccccc2)([N+](=O)[O-])C=C1)C(=O)C(Cl)Cl (configuration not stated)
27 | 131 to 136 | O=CNc1cc(Cl)ccc1C=O
28 | 200 to 202 | Cn1cc(C(=O)NCc2ccc(Cl)cc2)c(=O)c2cc(CN3CCOCC3)cc(C#Cc3ccncc3)c21
29 | 190 to 191 | O=C(O)c1cccc(-c2cccc3c2CN(Cc2cccc(C(F)(F)F)c2)C3=O)c1
30 | 214 to 215 | CS(=O)(=O)c1ccc(C(=O)O)c(F)c1F
31 | 165 | O=C(CCl)c1ccc(OCCOc2ccc(C(=O)CCl)cc2)cc1
32 | 130 to 132 | O=C1NC(=O)C(c2cccc3ccsc23)O1 (configuration not stated)
33 | 190 to 191 | CC(=O)N1c2ccc(-c3nnn[nH]3)cc2C(Nc2ccc(Cl)cc2)CC1C (configuration not stated)
34 | 100 | O=S=NNc1cccc(C(F)(F)F)c1
35 | 195 to 196 | COc1cc2c(cc1OC)CC(NC(=O)C1CCC(=O)N1)CC2 (configuration not stated)
36 | 175 to 177 | COc1ccc2cc(C(O)C(C)N3CCC(NC(=O)c4ccccc4)CC3)ccc2c1 (configuration not stated)
37 | 110 to 115 | O=C(Nc1ccccn1)C(CC1CCCC1)c1ccc([N+](=O)[O-])cc1 (configuration not stated)
38 | 84 to 85 | Fc1ccc(C2=CCC3(CC2)OCCO3)cc1
39 | 111 to 112 | CCOC(=O)[C@@H](O)[C@@H]1OC(=O)c2c1cc(OC)c(OC)c2OC
40 | 232 to 234 | Cc1cc2c3c(cc(C)c2[nH]c1=O)CC(C)(CN=[N+]=[N-])O3 (configuration not stated)
41 | 120 to 140 | CN(Cc1cc[nH]n1)C1CCCN(C(=O)c2ccc(Nc3nccc(Nc4ccc(F)cc4)n3)cc2)C1 (configuration not stated)
42 | 176 to 179 | CCOC(=O)c1cn(CC)c2cc(C(=O)C=CN(C)C)c(F)cc2c1=O
43 | 120 to 121 | CON=C(c1cc(C)on1)c1ccccc1COc1ncc(Cl)cc1C(F)(F)F
44 | 210 to 212 | CN(Cc1cc(C(F)(F)F)cc(C(F)(F)F)c1)C(=O)c1c(-c2ccc(F)cc2)c2ccc(=O)n(C)c2c(=O)n1C
45 | 154 to 155 | Cc1ccc(N)c(C#Cc2ccccc2)n1
46 | 102 to 104 | CCCCCCCCCCCCC1=C(O)C(=O)c2c(Cl)cccc2C1=O
47 | 128 to 130 | COC1(c2cc(F)cc(Sc3ccc4c(c3)n(C)c(=O)n4C)c2)CCOCC1
48 | 204 to 206 | COc1ccc(N2C(=O)/C(=C/C(C)=NO)C2c2ccccc2)cc1 (configuration not stated)
49 | 123 to 125 | CCCc1nnc2ccc(-c3ccccc3)nn12
50 | 171 to 176 | O=CC(O)C(O)C(CO)OC1OC(CO)C(O)C(O)C1O (configuration not stated)

Row | melting point [°C] | SMILES
51 | > 325 | O=c1c2cc(O)ccc2[nH]c2c([N+](=O)[O-])ccc(Cl)c12
52 | 160 to 162 | CCOC(=O)c1cn(C2CC2)c2c(F)c(NCCCO)c(F)cc2c1=O
53 | 205 to 206 | O=S1(=O)N=CN(C2CC2)c2ccc(F)c(F)c21
54 | 150 to 151 | CCC(C)(C)c1ccc(O)c(C(=O)Nc2ccc([N+](=O)[O-])cc2C)c1
55 | 128 to 131 | CC1(C)CCCC(=O)N1
56 | 134 to 137 | C1=CC2=C(CCCC2)n2c3c(c4cnccc42)CCC=C13
57 | 191 to 193 | Cc1cc(F)ccc1-c1c(O)c(C)c(-c2ccc(F)cc2)oc1=O
58 | 101 to 103 | CCOC(=O)C1CCCCCCCC(=O)N1 (configuration not stated)
59 | 201 to 203 | CCCCc1cc(Cn2cnc3c(N)nc4ccccc4c32)no1
60 | 103 | CC(C)Nc1cccnc1N1CCN(C(=O)c2ccc(C(=O)NCCCN3CCOCC3)cc2)CC1
61 | 88 | CCCc1ccc(-c2ccc(-c3cccs3)c(F)c2)cc1
62 | 130 to 131 | Fc1cccc(F)c1-c1nccc(-c2ccc(Br)cc2)n1
63 | 236 | CCOC(=O)Cn1c(=O)c(C#N)c(N2CCN(C(=O)c3cccs3)CC2)c2cccnc21
64 | 235 to 237 | Cc1ccc(S(=O)(=O)Nc2cc(C(=O)O)c3c(c2)C(C(=O)O)CC(c2ccccc2)N3)cc1 (configuration not stated)
65 | 98 to 100 | CC(=O)CN(C(=O)Cc1ccccc1)C(C)(C)c1cccc(Cl)c1
66 | 155 to 158 | CCOC(=O)Cc1ccc(-c2cn3cccnc3n2)cc1
67 | 101 | CCCCCCCCCCCCCCCCCCN=Cc1ccc(O)cc1
68 | 67 to 69 | CCCCCCCCCCCCCCCCSCC(CNS(=O)(=O)CCCCl)NC(=O)OC (configuration not stated)
69 | 202 to 204 | Cc1cccc2ncc(C(=O)Nc3ccc(Cl)cc3)c(=O)n12
70 | 226 to 227 | COc1ccc([C@H]2NC(=S)N[C@H]2c2ccc(OC)cc2)cc1
71 | 178 to 180 | CC#CCCn1ncc2c(N)c3c(nc21)CN(CCC)C3=O
72 | 244 | O=C(C=Cc1ccccc1)Nc1ccc(C(c2ccc(Cl)cc2)n2ccnc2)cc1 (configuration not stated)
73 | 107 to 112 | CC1SC(=S)N(C)N=C1c1ncc(Cl)cc1F (configuration not stated)
74 | 90.5 to 91.5 | O=S1NC(CC2=C(Cl)c3ccccc3CC2)=NO1 (configuration not stated)
75 | 102 to 104 | COc1ccc2c(c1)CCC1C2CCC2(C)C(NCc3ccccc3)CCC12 (configuration not stated)

Row | melting point [°C] | SMILES
76 | 288 | CC1Cc2cc3c(cc2C(c2ccc([N+](=O)[O-])cc2)=NN1c1n[nH]c(=O)s1)OCO3 (configuration not stated)
77 | > 285 | O=C(O)c1ccc(NC(=O)c2ccccc2SSc2ccccc2C(=O)Nc2ccc(C(=O)O)cc2)cc1
78 | 155 to 156 | CC(O)c1ccc(CCOc2ccc(CC3SC(=O)NC3=O)cc2)nc1 (configuration not stated)
79 | 149 to 150 | CC(C#Cc1ccc(Oc2ccc(F)cc2)s1)N(O)C(N)=O (configuration not stated)
80 | 118 to 119 | COc1ccc(CN2C(=O)CC(C)(C)c3cc(Br)ccc32)cc1
81 | 101 to 104 | CCCc1c(OCCCOCCCOc2ccc3ccc(OCC(=O)O)cc3c2C(C)=O)ccc(C(C)=O)c1O
82 | 107 to 109 | O=S(=O)(/C=C/c1ccc(Cl)cc1)Nc1ccccc1Cl
83 | 220 to 222 | CSc1cc(C)c(C(=O)N=C(N)N)cc1S(C)(=O)=O
84 | 41 to 42 | COc1cccc2c1nc(C1CC1)n2CC=C(C)C
85 | 143 to 145 | CS(=O)(=O)c1ccc(-c2cc(C(=O)CCCO)nn2-c2ccccc2)cc1
86 | 154 to 155 | CCCCn1nnc(NCc2ccc(-c3ccccc3-c3nnn[nH]3)cc2)c1C(=O)O
87 | 114 | CC1(C)N=C(Oc2ccccn2)c2cc(F)ccc2O1
88 | 113 to 121 | COc1ccc(NS(=O)(=O)c2ccc(N3CCC(NC[C@H](O)COc4ccc(OCc5ccccc5)cc4)CC3)cc2)cc1OC
89 | 98 to 100 | Cc1cc(C)c2c(-c3coc4cc(C)cc(C)c34)coc2c1
90 | 124 | CC(=O)Nc1ccc(O)cc1F
91 | 70 | NCC(CN)(CN)CN
92 | 51 to 54 | CCC(=O)C1=CC=C(OC)C(Cl)(Cl)C1
93 | 190 to 191 | Cc1cc2c(cc1C1=NNC(=O)CC1C)NC(=O)C(C)O2 (configuration not stated)
94 | 201 to 202 | CCOC(=O)Cn1c(=O)c2cc(Cc3ncc[nH]3)ccc2n(Cc2ccc(Cl)c(Cl)c2)c1=O
95 | 165 | O=C1C(=O)c2ccccc2C2=C1SCC1(CCN(C(=O)c3ccco3)CC1)O2
96 | 49 to 51 | C[C@H]1CCCC(C)(C)[C@]1(C)C(=O)c1ccc(F)cc1
97 | 112 to 115 | Cc1cc(-c2ccc(Cl)cc2)nc2c(C#Cc3ccc(C(C)(C)O)cc3)cnn12
98 | 133 to 134 | CCCc1oc(C)cc(=O)c1C(=O)Nc1ccccc1
99 | 160 to 163 | CN(CCSc1ccc(NS(C)(=O)=O)cc1)CCc1ccc(NS(C)(=O)=O)cc1
100 | 199 to 200 | Cc1ccc(C(=S)c2c(C)cc(Cc3ccc(N)cc3F)n2C)cc1

Row | SMILES | melting point [°C]
101 | COc1ccc(N(C(=O)CN2C(=O)CC(=O)N(c3ccncc3)c3ccccc32)C(C)C)cc1 | 211 to 213
102 | CCC12CCC(NC(=O)C=CC(=O)OC)C3Oc4c(O)ccc5c4C31CCN(CC1CC1)C2C5 (configuration not stated) | 233 to 236
